Here are results for two compounds from publication doi:10.1101/2025.02.15.638425v1, “Synthesis and Biological Evaluation of Nipecotic Acid Derivatives with Terminally Double-Substituted Allenic Spacers as mGAT4 Inhibitors” (biorxiv, 2025).

Assay [1] concerns the target T1, mGAT1 (Mus musculus, UniProt P31648).
T1 construct: gene Slc6a1; full-length transporter stably expressed in HEK293 cells
In words: competitive MS Binding Assay, NO711 marker, HEK293 membranes. The text has this: competitive MS Binding Assay, NO711 marker, HEK293 membranes on mGAT1

The target of assay [2] is T1, mGAT1. Briefly: [3H]GABA uptake, intact HEK293 cells. It counts as cell-based. The text has this: [3H]GABA uptake, intact HEK293 cells on mGAT1
In assay [3] the target is T2, mGAT3 (Mus musculus, UniProt P31649).
T2 construct: gene Slc6a13; full-length transporter stably expressed in HEK293 cells; mouse nomenclature, equivalent of hGAT-2
T2 sequence (P31649 1-602): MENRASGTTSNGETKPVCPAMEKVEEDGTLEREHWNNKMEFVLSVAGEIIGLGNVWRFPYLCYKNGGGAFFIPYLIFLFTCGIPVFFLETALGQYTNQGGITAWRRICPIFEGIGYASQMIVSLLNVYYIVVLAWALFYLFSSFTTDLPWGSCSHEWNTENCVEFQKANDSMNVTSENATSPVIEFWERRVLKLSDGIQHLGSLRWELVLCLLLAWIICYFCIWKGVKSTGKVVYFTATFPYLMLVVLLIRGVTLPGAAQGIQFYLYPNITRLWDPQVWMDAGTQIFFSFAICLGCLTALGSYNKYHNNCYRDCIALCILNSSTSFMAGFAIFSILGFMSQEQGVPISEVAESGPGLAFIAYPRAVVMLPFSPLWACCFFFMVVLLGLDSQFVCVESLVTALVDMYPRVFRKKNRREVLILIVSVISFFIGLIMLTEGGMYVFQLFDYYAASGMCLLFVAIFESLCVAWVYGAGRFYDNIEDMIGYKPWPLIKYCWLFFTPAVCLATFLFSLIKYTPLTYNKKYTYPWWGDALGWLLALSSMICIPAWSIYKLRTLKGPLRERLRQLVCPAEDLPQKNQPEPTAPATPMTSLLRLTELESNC
In words: [3H]GABA uptake, intact HEK293 cells. It counts as cell-based. The text has this: [3H]GABA uptake, intact HEK293 cells on mGAT3

The target in assay [4] is T3, mGAT2 (Mus musculus, UniProt P31651).
T3 construct: gene Slc6a12; full-length transporter stably expressed in HEK293 cells; mouse nomenclature, equivalent of hBGT-1
T3 sequence (P31651 1-614): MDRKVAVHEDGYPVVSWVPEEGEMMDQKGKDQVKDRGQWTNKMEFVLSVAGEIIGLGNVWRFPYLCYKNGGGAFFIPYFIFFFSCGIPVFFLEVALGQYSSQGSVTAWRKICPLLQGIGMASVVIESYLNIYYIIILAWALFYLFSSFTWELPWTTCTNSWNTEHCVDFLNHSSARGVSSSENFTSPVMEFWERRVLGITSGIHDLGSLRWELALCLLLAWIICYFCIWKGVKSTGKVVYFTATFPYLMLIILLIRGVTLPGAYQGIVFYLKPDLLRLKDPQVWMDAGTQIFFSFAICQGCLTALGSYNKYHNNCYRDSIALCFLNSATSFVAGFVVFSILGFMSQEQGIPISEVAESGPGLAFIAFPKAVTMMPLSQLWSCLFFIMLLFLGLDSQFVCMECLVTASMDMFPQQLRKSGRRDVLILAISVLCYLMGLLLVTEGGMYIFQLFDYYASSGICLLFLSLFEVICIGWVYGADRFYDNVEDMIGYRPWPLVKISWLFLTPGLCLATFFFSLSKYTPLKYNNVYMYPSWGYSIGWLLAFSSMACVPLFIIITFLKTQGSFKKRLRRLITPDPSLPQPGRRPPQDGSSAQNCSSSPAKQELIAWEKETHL
In words: [3H]GABA uptake, intact HEK293 cells. It counts as cell-based. The text has this:
[3H]GABA uptake, intact HEK293 cells on mGAT2

Assay [5] has as its target T4, mGAT4 (Mus musculus, UniProt P31650).
T4 construct: gene Slc6a11; full-length transporter stably expressed in HEK293 cells
T4 sequence (P31650 1-627): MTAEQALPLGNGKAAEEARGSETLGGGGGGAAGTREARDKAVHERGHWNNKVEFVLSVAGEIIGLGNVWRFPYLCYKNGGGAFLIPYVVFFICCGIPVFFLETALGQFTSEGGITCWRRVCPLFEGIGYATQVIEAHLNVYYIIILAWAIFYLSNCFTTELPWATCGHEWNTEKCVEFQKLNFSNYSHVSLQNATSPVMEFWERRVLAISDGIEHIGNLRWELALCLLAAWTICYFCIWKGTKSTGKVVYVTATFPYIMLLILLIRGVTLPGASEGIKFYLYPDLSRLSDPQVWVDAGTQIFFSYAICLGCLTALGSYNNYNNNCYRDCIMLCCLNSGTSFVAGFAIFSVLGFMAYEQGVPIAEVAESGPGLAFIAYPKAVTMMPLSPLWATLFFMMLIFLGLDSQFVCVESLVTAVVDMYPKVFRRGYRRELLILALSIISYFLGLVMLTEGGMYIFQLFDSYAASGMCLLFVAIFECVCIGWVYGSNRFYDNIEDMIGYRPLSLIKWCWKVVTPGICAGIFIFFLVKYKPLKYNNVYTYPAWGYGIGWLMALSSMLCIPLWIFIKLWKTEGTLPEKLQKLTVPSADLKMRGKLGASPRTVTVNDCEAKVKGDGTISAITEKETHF
In words: [3H]GABA uptake, intact HEK293 cells. It counts as cell-based. The text has this:
[3H]GABA uptake, intact HEK293 cells on mGAT4

As usually defined, the Ki is a dissociation constant, usually derived from enzyme kinetics or from competition with a known ligand. High values mean lower affinity, low ones higher affinity. As usually defined, the IC50 is the concentration at which inhibition is half-maximal. Read a high IC50 as lower potency. The remaining activity is the activity still measured, relative to the control. A high value points to much activity left. Compound `O=C(O)C1CCCN(CCC=C=C(c2ccccc2)c2ccccc2)C1` (racemic) [rac-11a, rac-[1-(5,5-Diphenylpenta-3,4-dien-1-yl)piperidine-3-carboxylic acid]] showed a Ki in assay [1] of 5.5 µM. Besides, the IC50 in assay [2] is 24.5 µM; in assay [3], 129 µM; in assay [4] it was 178 µM. The remaining activity at 100 µM in assay [5] was found to be 64%.
As to `O=C(O)C1CCCN(CCC=C=C(c2ccc(F)cc2)c2ccc(F)cc2)C1` (racemic) [rac-11c, rac-{1-[5,5-Bis(4-fluorophenyl)penta-3,4-dien-1-yl]piperidine-3-carboxylic acid}], in assay [1], the affinity corresponds to a Ki of 3.24 µM. Moreover, the IC50 in assay [2] is 12.9 µM. Besides, the remaining activity at 100 µM in assay [3] amounted to 50%; in assay [5], 63%.
